In brackets after ≈: the same amount, converted by molar mass. Like-named read-outs stand apart in the source and are kept apart here.
Tests used:
E. coli NIHJ = assay: minimal inhibitory concentration against E. coli NIHJ; assay type: cell-based; conditions: Escherichia coli
E. coli 0-111 = assay: minimal inhibitory concentration against E. coli 0-111; assay type: cell-based, Escherichia coli; conditions: 0111
E. coli T-7 = assay: minimal inhibitory concentration against E. coli T-7; assay type: cell-based; conditions: Escherichia coli, T7
Klebsiella pneumoniae DT = assay: minimal inhibitory concentration against K. pneumoniae DT; assay type: cell-based
[1] = tested on: Klebsiella pneumoniae GN 3835; assay: minimal inhibitory concentration against K. pneumoniae GN 3835; assay type: cell-based; conditions: GN3835
Ps. aeruginosa Pd 1 = assay: minimal inhibitory concentration against Ps. aeruginosa Pd 1; assay type: cell-based; conditions: Pseudomonas aeruginosa, PD1
Ps. aeruginosa PM 3 = assay: minimal inhibitory concentration against Ps. aeruginosa PM 3; assay type: cell-based; conditions: Pseudomonas aeruginosa, PM3
Ps. aeruginosa P2 = assay: minimal inhibitory concentration against Ps. aeruginosa P2; assay type: cell-based; conditions: Pseudomonas aeruginosa
Ps. aeruginosa GN3407 = assay: minimal inhibitory concentration against Ps. aeruginosa GN3407; assay type: cell-based; conditions: Pseudomonas aeruginosa
[2] = tested on: Serratia marcescens IFO 12648; assay: minimal inhibitory concentration against Serr. marcescens IFO 12648; assay type: cell-based; conditions: IFO12648
Serratia TN 0024 = assay: minimal inhibitory concentration against Serratia TN 0024; assay type: cell-based
[3] = tested on: Proteus vulgaris IFO 3988; assay: minimal inhibitory concentration against P. vulgaris IFO 3988; assay type: cell-based; conditions: IFO3988
P. vulgaris GN 4413 = assay: minimal inhibitory concentration against P. vulgaris GN 4413; assay type: cell-based; conditions: Proteus vulgaris, GN4413
[4] = tested on: Proteus mirabilis GN 4359; assay: minimal inhibitory concentration against P. mirabilis GN 4359; assay type: cell-based; conditions: GN4359
[5] = tested on: Proteus morganii IFO 3168; assay: minimal inhibitory concentration against P. morganii IFO 3168; assay type: cell-based; conditions: Morganella morganii, IFO3168
P. rettgeri 8(TN0336) = assay: minimal inhibitory concentration against P. rettgeri 8 (TN0336); assay type: cell-based, Proteus rettgeri; conditions: Providencia rettgeri
Proteus rettgeri GN 4733 = assay: minimal inhibitory concentration against P. rettgeri GN 4733; assay type: cell-based; conditions: Providencia rettgeri, GN4733
Ent. cloacae TN1282 = assay: minimal inhibitory concentration against Ent. cloacae TN1282; assay type: cell-based; conditions: Enterobacter cloacae
[6] = tested on: Citrobacter freundii GN 99; assay: minimal inhibitory concentration against Cit. freundii GN 99; assay type: cell-based; conditions: GN99
[7] = tested on: Citrobacter freundii GN 1706; assay: minimal inhibitory concentration against Cit. freundii GN 1706; assay type: cell-based; conditions: GN1706
[8] = tested on: Acinetobacter anitratus TN-1140; assay: minimal inhibitory concentration against Acinetobacter anitratus TN-1140; assay type: cell-based; conditions: Acinetobacter calcoaceticus, TN1140
E. coli = assay: protective effect on infected mice (intraperitoneal infection with E. coli); assay type: in vivo; conditions: Escherichia coli, 168 h, male mice ICR/SLC, 7 days observation
Excerpt: *Test animals: male mice (ICR/SLC) 5 mice per group per single
Infection: intraperitoneally with E. coli
Observation period: 7 days

[9] = tested on: Enterobacter cloacae IFO 12937; assay: minimal inhibitory concentration against Ent. cloacae IFO 12937; assay type: cell-based; conditions: IFO12937; Enterobacter cloacae IFO 12937; read-out: MIC
[10] = Escherichia coli, E. coli 0-111, read-out: minimal inhibitory concentration
[11] = Klebsiella pneumoniae, K. pneumoniae DT, read-out: minimal inhibitory concentration
[12] = Klebsiella pneumoniae, K. pneumoniae GN 3835, read-out: minimal inhibitory concentration
[13] = Serratia marcescens, Serr. marcescens IFO 12648, read-out: minimal inhibitory concentration
[14] = TN0024, Serratia TN 0024, read-out: minimal inhibitory concentration
[15] = Proteus vulgaris, P. vulgaris IFO 3988, read-out: minimal inhibitory concentration
[16] = Proteus mirabilis, P. mirabilis GN 4359, read-out: minimal inhibitory concentration
[17] = P. morganii IFO 3168, read-out: minimal inhibitory concentration
[18] = P. rettgeri 8(TN0336), read-out: minimal inhibitory concentration
[19] = P. rettgeri GN 4733, read-out: minimal inhibitory concentration
[20] = Citrobacter freundii, Cit. freundii GN 99, read-out: minimal inhibitory concentration
[21] = Citrobacter freundii, Cit. freundii GN 1706, read-out: minimal inhibitory concentration

SMILES	MIC (E. coli NIHJ)	MIC (E. coli 0-111; [10])	MIC (E. coli T-7)	MIC (Klebsiella pneumoniae DT; [11])	MIC [1, 12]	MIC (Ps. aeruginosa Pd 1)	MIC (Ps. aeruginosa PM 3)	MIC (Ps. aeruginosa P2)	MIC (Ps. aeruginosa GN3407)	MIC [2, 13]	MIC (Serratia TN 0024; [14])	MIC [3, 15]	MIC (P. vulgaris GN 4413)	MIC [4, 16]	MIC [5, 17]	MIC (P. rettgeri 8(TN0336); [18])	MIC (Proteus rettgeri GN 4733; [19])	MIC (Ent. cloacae TN1282)	MIC [6, 20]	MIC [7, 21]	further results
CO/N=C(\C(=O)NC1C(=O)N2C(C(=O)O)=C(CSc3nnnn3C)CSC12)c1csc(N)n1 (centres unmarked) [Example 2]	0.1 mg/L (≈ 0.195 µM)	0.024 mg/L (≈ 0.0469 µM)	0.78 mg/L (≈ 1.52 µM)	0.024 mg/L (≈ 0.0469 µM)	0.2 mg/L (≈ 0.391 µM)	12.5 mg/L (≈ 24.4 µM)	0.78 mg/L (≈ 1.52 µM)	50 mg/L (≈ 97.7 µM)	50 mg/L (≈ 97.7 µM)	0.78 mg/L (≈ 1.52 µM)	0.2 mg/L (≈ 0.391 µM)	0.024 mg/L (≈ 0.0469 µM)	0.39 mg/L (≈ 0.762 µM)	0.1 mg/L (≈ 0.195 µM)	0.05 mg/L (≈ 0.0977 µM)	≤ 0.012 mg/L	0.2 mg/L (≈ 0.391 µM)	1.56 mg/L (≈ 3.05 µM)	0.1 mg/L (≈ 0.195 µM)	0.2 mg/L (≈ 0.391 µM)	MIC [8]: 25 mg/L (≈ 48.9 µM); ED50 (E. coli; subcutaneous (SC)): 0.022 mg/kg
CO/N=C(\C(=O)NC1C(=O)N2C(C(=O)O)=C(COC(C)=O)CSC12)c1csc(N)n1 (stereo not drawn) [Example 3, sodium 7-[2-(2-aminothiazol-4-yl)-2-(syn)-methoxyiminoacetamido]cephalosporanate]	0.2 mg/L	0.05 mg/L	0.78 mg/L	0.024 mg/L	0.05 mg/L	25 mg/L	1.56 mg/L	50 mg/L	50 mg/L	3.13 mg/L	0.78 mg/L	0.024 mg/L	0.78 mg/L	0.05 mg/L	0.2 mg/L	≤ 0.012 mg/L	0.2 mg/L	6.25 mg/L	0.2 mg/L	0.39 mg/L	MIC [8]: 25 mg/L; ED50 (E. coli; subcutaneous (SC)): 0.018 mg/kg
CO/N=C(\C(=O)NC1C(=O)N2C(C(=O)O)=C(C)CSC12)c1csc(N)n1 (stereo not drawn) [Example 5, sodium 7-[2-(2-aminothiazol-4-yl)-2-(syn)-methoxyiminoacetamido]desacetoxycephalosporanate]	0.78 mg/L	0.39 mg/L	6.25 mg/L	0.2 mg/L	0.2 mg/L	> 100 mg/L	25 mg/L	> 100 mg/L	> 100 mg/L	12.5 mg/L	1.56 mg/L	0.2 mg/L	1.56 mg/L	0.1 mg/L	12.5 mg/L	≤ 0.012 mg/L	0.1 mg/L	50 mg/L	3.13 mg/L	6.25 mg/L	MIC [8]: 12.5 mg/L; ED50 (E. coli; subcutaneous (SC)): 0.111 mg/kg
CO/N=C(\C(=O)NC1C(=O)N2C(C(=O)OCOC(=O)C(C)(C)C)=C(CSc3nnnn3C)CSC12)c1csc(N)n1 (centres unmarked) [Example 15]																					ED50 (E. coli; oral): 0.11 mg/kg
CO/N=C(/C(=O)NC1C(=O)N2C(C(=O)O)=C(COC(N)=O)CSC12)c1csc(N)n1 (stereo not drawn) [compound 27, sodium 7-[(2-aminothiazol-4-yl)-α-(anti)-methoxyimino]acetamido-3-carbamoyloxymethyl-3-cephem-4-carboxylate, reference compound]																					MIC (E. coli 0-111; Escherichia coli 0-111, read-out: MIC): 0.78 mg/L; MIC (Klebsiella pneumoniae DT; Klebsiella pneumoniae DT, read-out: MIC): 1.56 mg/L; MIC ([1]; Klebsiella pneumoniae GN 3835, read-out: MIC): 6.25 mg/L; MIC ([2]; Serratia marcescens IFO 12648, read-out: MIC): 12.5 mg/L; MIC (Serratia TN 0024; Serratia TN0024, read-out: MIC): 6.25 mg/L; MIC ([3]; Proteus vulgaris IFO 3988, read-out: MIC): 0.39 mg/L; MIC ([4]; Proteus mirabilis GN 4359, read-out: MIC): 0.78 mg/L; MIC ([5]; Proteus morganii IFO 3168, read-out: MIC): 0.78 mg/L; MIC (P. rettgeri 8(TN0336); Proteus rettgeri 8 TNO 336, read-out: MIC): < 0.2 mg/L; MIC (Proteus rettgeri GN 4733; Proteus rettgeri GN 4733, read-out: MIC): 0.78 mg/L; MIC ([6]; Citrobacter freundii GN 99, read-out: MIC): 1.56 mg/L; MIC ([7]; Citrobacter freundii GN 1706, read-out: MIC): 3.13 mg/L; MIC [9]: 25 mg/L
